Patent US12410195B2, “Pharmaceutical compositions comprising 4-((6bR,10aS)-3-methyl-2,3,6b,9,10,10a-hexahydro-1H-pyrido[3′,4′:4,5]pyrrolo[1,2,3-de]quinoxalin-8(7H)-yl)-1-(4-((6bR,10aS)-3-methyl-2,3,6b,9,10,10a-hexahydro-1H-pyrido[3′,4′:4,5]pyrrolo[1,2,3-de]quinoxalin-8(7H)-yl)phenyl)butan-1-one for treating conditions …” (INTRA-CELLULAR THERAPIES, INC., priority 2019, dated 2025)
pIC50, pKi: −log10 of the molar value.

Key:
[1] = system: symptoms of emotional experience (negative symptoms of schizophrenia); assay: Clinical studies in patients with acute exacerbated schizophrenia; assay type: in vivo, human; settings: once daily 60 mg P.O., up to 28 days, two clinical studies
Description: Social avoidance can be a critical and debilitating symptom in patients suffering from anxiety disorders, especially social anxiety disorder, as well as in patients suffering from traumatic anxiety disorders. Social avoidance is often one of the key determinants of whether a person with a severe anxiety disorder is capable of maintaining familial relationships or employment relationships. […] Negative symptoms of schizophrenia can be divided into two categories: emotional experience (e.g., emotional withdrawal, passive social withdrawal, active social avoidance) and emotional expression (e.g., blunted effect, poor rapport, lack of spontaneity, and motor retardation). […] These are the symptoms that are most highly correlated with interpersonal functioning.

[2] = biological target: D2S (Homo sapiens, UniProt P14416); assay: Radioligand receptor binding, D2S (agonist binding); settings: radioligand 7-hydroxy-DPAT
Chain of D2S (P14416 1-414 isoform P14416-2): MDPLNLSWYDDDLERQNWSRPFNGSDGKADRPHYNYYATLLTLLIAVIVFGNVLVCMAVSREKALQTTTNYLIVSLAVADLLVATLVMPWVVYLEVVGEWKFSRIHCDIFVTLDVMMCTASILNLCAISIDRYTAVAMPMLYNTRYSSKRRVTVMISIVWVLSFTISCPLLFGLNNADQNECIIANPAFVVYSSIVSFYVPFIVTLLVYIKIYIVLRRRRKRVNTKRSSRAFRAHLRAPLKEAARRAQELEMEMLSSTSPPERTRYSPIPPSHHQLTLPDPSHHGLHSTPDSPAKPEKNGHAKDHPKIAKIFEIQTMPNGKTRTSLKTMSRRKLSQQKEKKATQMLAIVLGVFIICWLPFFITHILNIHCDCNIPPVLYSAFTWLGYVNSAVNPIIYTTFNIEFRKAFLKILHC
Procedure: (§1) Receptor binding is determined for the Compounds of Example 1. The following literature procedures are used, each of which reference is incorporated herein by reference in their entireties: 5-HT2A: Bryant, H. U. et al. (1996), Life Sci., 15:1259-1268; D2: Hall, D. A. and Strange, P. G. (1997), Brit. J. Pharmacol., 121:731-736; D1: Zhou, Q. Y. et al. (1990), Nature, 347:76-80; SERT: Park, Y. M. et al. (1999), Anal. Biochem., 269:94-104; Mu opiate receptor: Wang, J. B. et al. (1994), FEBS Lett., 338:217-222.
(§2) The compound of Example 1 is tested at a concentration of […] in DMSO solution. Compound binding is calculated as the percent inhibition of the binding of a radioactively labeled ligand specific for each target. The control ligands are radiolabeled forms of SCH 23390 (for D1), 7-hydroxy-DPAT (for D2S), racemic DOI (for 5-HT2A and 5-HT2B), veratridine (for sodium channel site 2), protriptyline (for NET) and imipramine (for SERT).
(§3) In general, the results are expressed as a percent of control specific binding:
(§4) [formula] and as a percent inhibition of control specific binding:
(§5) [formula] obtained in the presence of the test compound (compound of Example 1).
(§6) Further pharmacology studies are conducted to determine IC50 values for receptor binding to the 5-HT2A receptor, D1 receptor, and SERT. For each study, the compound of Example 1 is tested at a range of concentrations and compound binding at each concentration is calculated as the percent inhibition of the binding of a radioactively labeled ligand specific for the target. The control ligands are radiolabeled forms of […], racemic DOI (for 5-HT2A), and imipramine (for SERT). The IC50 value is determined by non-linear regression analysis of the competition curve generated with mean replicate values using Hill Equation curve fitting:
(§7) [formula] wherein Y is specific binding, A is the left asymptote of the curve, D is the right asymptote of the curve, C is the compound concentration, and nH is the slope factor. Ki values are calculated using the Cheng Prusoff equation: […]

[3] = biological target: 5-HT2B (Homo sapiens, UniProt P41595); assay: Radioligand receptor binding, 5-HT2B (agonist binding); set-up: dose or concentration left out as unconfirmed; settings: in DMSO solution; radioligand racemic DOI
Chain of 5-HT2B (P41595 whole entry): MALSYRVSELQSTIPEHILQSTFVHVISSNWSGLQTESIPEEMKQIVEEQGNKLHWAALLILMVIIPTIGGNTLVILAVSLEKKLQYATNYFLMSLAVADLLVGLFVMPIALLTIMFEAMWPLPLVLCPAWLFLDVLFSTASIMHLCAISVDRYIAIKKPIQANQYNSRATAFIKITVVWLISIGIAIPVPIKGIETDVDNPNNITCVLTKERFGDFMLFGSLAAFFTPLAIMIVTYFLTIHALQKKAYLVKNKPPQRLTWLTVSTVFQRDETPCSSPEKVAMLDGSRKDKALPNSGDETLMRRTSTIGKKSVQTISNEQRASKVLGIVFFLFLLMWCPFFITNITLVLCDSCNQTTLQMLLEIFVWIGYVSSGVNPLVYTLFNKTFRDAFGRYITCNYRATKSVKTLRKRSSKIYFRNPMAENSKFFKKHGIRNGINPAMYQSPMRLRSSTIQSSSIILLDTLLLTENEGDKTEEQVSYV
Procedure: as §1, §2, §3, §4, §5

[4] = biological target: NET (Homo sapiens, UniProt P23975); assay: Radioligand binding, NET (antagonist binding); set-up: dose or concentration left out as unconfirmed; settings: tested in DMSO solution; radioligand protriptyline
Chain of NET (P23975 whole entry): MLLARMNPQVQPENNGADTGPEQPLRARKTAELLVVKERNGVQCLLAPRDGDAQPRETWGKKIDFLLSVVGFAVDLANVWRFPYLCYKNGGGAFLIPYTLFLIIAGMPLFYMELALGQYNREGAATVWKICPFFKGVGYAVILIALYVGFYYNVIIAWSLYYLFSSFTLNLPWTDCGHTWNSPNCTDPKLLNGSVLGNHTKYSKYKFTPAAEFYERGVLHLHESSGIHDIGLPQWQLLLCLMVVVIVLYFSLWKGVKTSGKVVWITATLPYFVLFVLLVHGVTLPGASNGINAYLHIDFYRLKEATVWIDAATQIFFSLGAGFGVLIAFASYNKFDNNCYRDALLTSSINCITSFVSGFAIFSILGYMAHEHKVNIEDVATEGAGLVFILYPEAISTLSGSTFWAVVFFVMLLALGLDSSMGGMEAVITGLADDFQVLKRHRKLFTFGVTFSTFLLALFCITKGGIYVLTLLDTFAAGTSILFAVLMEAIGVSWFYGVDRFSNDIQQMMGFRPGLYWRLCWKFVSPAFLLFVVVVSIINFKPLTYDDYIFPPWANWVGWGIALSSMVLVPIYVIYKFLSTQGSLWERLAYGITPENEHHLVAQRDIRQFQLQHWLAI
Procedure: as §2, §3, §4, §5

[5] = system: Sodium channel (site 2); assay: Radioligand binding, sodium channel site 2 (antagonist binding); settings: tested at 1.01.1M in DMSO solution; radioligand veratridine
Procedure: as §2, §3, §4, §5

[6] = biological target: 5-HT2A receptor (Homo sapiens, UniProt P28223); assay: Radioligand receptor binding, 5-HT2A (agonist binding); settings: radioligand racemic DOI
Chain of 5-HT2A receptor (P28223 whole entry): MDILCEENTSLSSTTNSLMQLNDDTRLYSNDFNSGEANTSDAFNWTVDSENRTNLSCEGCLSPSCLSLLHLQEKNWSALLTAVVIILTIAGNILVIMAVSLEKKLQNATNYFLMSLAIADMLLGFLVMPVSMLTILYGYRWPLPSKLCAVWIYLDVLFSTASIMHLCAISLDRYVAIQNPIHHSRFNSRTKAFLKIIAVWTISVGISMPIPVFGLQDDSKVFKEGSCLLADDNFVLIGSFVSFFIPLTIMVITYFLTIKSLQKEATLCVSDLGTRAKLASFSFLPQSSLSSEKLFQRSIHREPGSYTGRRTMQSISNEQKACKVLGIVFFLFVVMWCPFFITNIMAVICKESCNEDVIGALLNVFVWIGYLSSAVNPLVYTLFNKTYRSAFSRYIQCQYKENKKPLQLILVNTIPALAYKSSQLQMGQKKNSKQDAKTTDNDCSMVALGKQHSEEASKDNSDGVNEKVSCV
Procedure: as §1, §2, §3, §4, §5, §6, §7

[7] = biological target: SERT (Homo sapiens, UniProt P31645); assay: Radioligand receptor binding, SERT (antagonist binding); settings: radioligand imipramine
Chain of SERT (P31645 whole entry): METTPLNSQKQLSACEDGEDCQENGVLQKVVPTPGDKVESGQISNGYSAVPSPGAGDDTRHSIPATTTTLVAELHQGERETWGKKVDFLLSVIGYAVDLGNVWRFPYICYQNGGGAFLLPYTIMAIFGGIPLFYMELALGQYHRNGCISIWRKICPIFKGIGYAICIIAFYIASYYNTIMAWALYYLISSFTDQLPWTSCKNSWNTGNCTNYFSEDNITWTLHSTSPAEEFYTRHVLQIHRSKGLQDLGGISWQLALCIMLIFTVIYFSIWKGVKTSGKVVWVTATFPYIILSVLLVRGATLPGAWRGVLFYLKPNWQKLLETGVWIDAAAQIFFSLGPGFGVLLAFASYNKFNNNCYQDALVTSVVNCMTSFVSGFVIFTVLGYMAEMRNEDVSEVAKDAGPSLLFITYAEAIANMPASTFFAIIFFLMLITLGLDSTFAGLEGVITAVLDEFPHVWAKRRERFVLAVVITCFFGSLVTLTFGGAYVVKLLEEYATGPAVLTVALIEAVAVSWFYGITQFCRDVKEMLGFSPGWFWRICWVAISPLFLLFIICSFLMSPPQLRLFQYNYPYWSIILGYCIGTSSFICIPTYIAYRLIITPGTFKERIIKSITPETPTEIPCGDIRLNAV
Procedure: as §1, §2, §3, §4, §5, §6, §7

[8] = biological target: D1 (Homo sapiens, UniProt P21728); assay: Radioligand receptor binding, D1 (antagonist binding); set-up: dose or concentration left out as unconfirmed; settings: in DMSO solution; radioligand SCH 23390
Chain of D1 (P21728 whole entry): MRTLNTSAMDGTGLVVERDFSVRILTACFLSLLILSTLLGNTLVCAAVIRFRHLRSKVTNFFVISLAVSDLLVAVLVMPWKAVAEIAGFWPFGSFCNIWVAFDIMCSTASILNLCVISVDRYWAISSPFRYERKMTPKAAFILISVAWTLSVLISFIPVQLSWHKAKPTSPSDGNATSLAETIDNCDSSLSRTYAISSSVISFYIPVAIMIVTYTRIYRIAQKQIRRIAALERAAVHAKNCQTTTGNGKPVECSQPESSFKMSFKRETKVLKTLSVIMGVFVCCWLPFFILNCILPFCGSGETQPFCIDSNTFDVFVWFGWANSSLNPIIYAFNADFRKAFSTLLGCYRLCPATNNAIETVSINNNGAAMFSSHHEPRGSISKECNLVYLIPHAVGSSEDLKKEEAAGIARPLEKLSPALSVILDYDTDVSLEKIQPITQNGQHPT
Procedure: as §1, §2, §3, §4, §5

[9] = tested at 1.01.1M in DMSO solution

Structure (SMILES) | symptoms of emotional experience compared to placebo [1] | pKi ([2]; Cheng Prusoff equation) | pIC50 ([2]; Hill equation curve fitting) | % inhibition of control specific binding, D2S (agonist binding) [2, 9] [%] | % inhibition of control specific binding, 5-HT2B (agonist binding) [3] [%] | % inhibition of control specific binding, NET (antagonist binding) [4] [%] | % inhibition of control specific binding, Sodium channel (site 2 antagonist binding) [5] [%] | pKi ([6]; Cheng Prusoff equation) | pIC50 ([6]; Hill equation curve fitting) | % inhibition of control specific binding, 5-HT2A (agonist binding) [6, 9] [%] | pKi ([7]; Cheng Prusoff equation) | pIC50 ([7]; Hill equation curve fitting) | % inhibition of control specific binding, SERT (antagonist binding) [7, 9] [%] | % inhibition of control specific binding, D1 (antagonist binding) [8] [%]
CN1CCN2c3c(cccc31)[C@@H]1CN(CCCC(=O)c3ccc(F)cc3)CC[C@@H]12 [lumateperone, 4-((6bR,10aS)-3-methyl-2,3,6b,9,10,10a-hexahydro-1H-pyrido[3′,4′: 4,5]pyrrolo[1,2,3-de]quinoxalin-8(7H)-yl)-1-(4-fluorophenyl)-1-butanone] | significant and unexpected improvement |  |  |  |  |  |  |  |  |  |  |  |  | 
CN1CCN2c3c(cccc31)[C@@H]1CN(CCCC(=O)c3ccc(N4CC[C@H]5[C@@H](C4)c4cccc6c4N5CCN6C)cc3)CC[C@@H]12 [Compound 1, 4-((6bR,10aS)-3-methyl-2,3,6b,9,10,10a-hexahydro-1H-pyrido[3′,4′: 4,5]pyrrolo[1,2,3-de]quinoxalin-8(7H)-yl)-1(4-((6bR,10aS)-3-methyl-2,3,6b,9,10,10a-hexahydro-1H-pyrido[3′,4′: 4,5]pyrrolo[1,2,3-de]quinoxalin-8(7H)-yl)phenyl)butan-1-one] |  | 7.14 | 6.74 | 80.63 | 87.0 | 82.9 | 87.0 | 7.29 | 7.17 | 90.8 | 8.89 | 8.54 | 99.9 | 52.3
